Measurements reported in PubChem BioAssay (NCI).
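Exposure lasted 48 hours, with cells grown in 96-well plates and compounds tested at five concentrations. TGI: total growth inhibition.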 Where a SMILES comes first, the peptide text is derived from it. [ ]: non-standard residue; d: D form. The star is where a group is joined. Ac5c = NC1(C(=O)O)CCCC1; Boc = CC(C)(C)OC(=O)*; tBu = CC(C)(C)*

How the values were obtained:
Assay in all cases: NCI anticancer screen, dose series, 48 h
M14 melanoma = system: M14 melanoma
EKVX NSCLC = system: EKVX NSCLC
MOLT-4 leukemia = system: MOLT-4 leukemia
NCI-H23 lung = system: NCI-H23 lung
T-47D breast = system: T-47D breast
OVCAR-3 ovarian = system: OVCAR-3 ovarian
SR leukemia = system: SR leukemia
CCRF-CEM leukemia = system: CCRF-CEM leukemia
KM12 colon = system: KM12 colon
RXF 393 renal = system: RXF 393 renal
HOP-92 NSCLC = system: HOP-92 NSCLC
HT29 colon = system: HT29 colon
SNB-75 CNS = system: SNB-75 CNS
OVCAR-5 ovarian = system: OVCAR-5 ovarian
NCI/ADR-RES ovarian = system: NCI/ADR-RES ovarian
UACC-62 melanoma = system: UACC-62 melanoma
SK-MEL-5 melanoma = system: SK-MEL-5 melanoma
SF-539 CNS = system: SF-539 CNS
786-0 renal = system: 786-0 renal
HOP-62 NSCLC = system: HOP-62 NSCLC
OVCAR-8 ovarian = system: OVCAR-8 ovarian
SN12C renal = system: SN12C renal
A549 NSCLC = system: A549 NSCLC
CAKI-1 renal = system: CAKI-1 renal
SW-620 colon = system: SW-620 colon
UO-31 renal = system: UO-31 renal
LOX IMVI melanoma = system: LOX IMVI melanoma
IGROV1 ovarian = system: IGROV1 ovarian
UACC-257 melanoma = system: UACC-257 melanoma
HCT-116 colon = system: HCT-116 colon
MDA-MB-231 breast = system: MDA-MB-231 breast
HCC-2998 colon = system: HCC-2998 colon
COLO 205 colon = system: COLO 205 colon
RPMI-8226 leukemia = system: RPMI-8226 leukemia
TK-10 renal = system: TK-10 renal
HS 578T breast = system: HS 578T breast
MCF7 breast = system: MCF7 breast
SF-268 CNS = system: SF-268 CNS
SF-295 CNS = system: SF-295 CNS
MDA-MB-435 = system: MDA-MB-435
HCT-15 colon = system: HCT-15 colon
DU-145 prostate = system: DU-145 prostate
A498 renal = system: A498 renal
OVCAR-4 ovarian = system: OVCAR-4 ovarian
NCI-H460 lung = system: NCI-H460 lung
NCI-H522 lung = system: NCI-H522 lung
U251 CNS = system: U251 CNS
SK-MEL-28 melanoma = system: SK-MEL-28 melanoma
NCI-H226 lung = system: NCI-H226 lung
SK-OV-3 ovarian = system: SK-OV-3 ovarian
ACHN renal = system: ACHN renal

COc1ccc(-n2c(-c3ccccc3)cc(-c3cccs3)c2-c2cccs2)cc1
TGI (M14 melanoma): > 100 µM
TGI (EKVX NSCLC): > 100 µM
TGI (MOLT-4 leukemia): > 100 µM
TGI (NCI-H23 lung): 95.7 µM
TGI (T-47D breast): > 100 µM
TGI (OVCAR-3 ovarian): > 100 µM
TGI (SR leukemia): > 100 µM
TGI (CCRF-CEM leukemia): 32.7 µM
TGI (KM12 colon): > 100 µM
TGI (RXF 393 renal): > 100 µM
TGI (HOP-92 NSCLC): > 100 µM
TGI (HT29 colon): > 100 µM
TGI (SNB-75 CNS): > 100 µM
TGI (OVCAR-5 ovarian): > 100 µM
TGI (NCI/ADR-RES ovarian): > 100 µM
TGI (UACC-62 melanoma): > 100 µM
TGI (SK-MEL-5 melanoma): > 100 µM
TGI (SF-539 CNS): > 100 µM
TGI (786-0 renal): > 100 µM
TGI (HOP-62 NSCLC): > 100 µM
TGI (OVCAR-8 ovarian): > 100 µM
TGI (SN12C renal): > 100 µM
TGI (A549 NSCLC): > 100 µM
TGI (CAKI-1 renal): > 100 µM
TGI (SW-620 colon): > 100 µM
TGI (UO-31 renal): > 100 µM
TGI (LOX IMVI melanoma): > 100 µM
TGI (IGROV1 ovarian): > 100 µM
TGI (UACC-257 melanoma): > 100 µM
TGI (HCT-116 colon): > 100 µM
TGI (MDA-MB-231 breast): > 100 µM
TGI (HCC-2998 colon): > 100 µM
TGI (COLO 205 colon): > 100 µM
TGI (RPMI-8226 leukemia): > 100 µM
TGI (TK-10 renal): > 100 µM
TGI (HS 578T breast): > 100 µM
TGI (MCF7 breast): > 100 µM
TGI (SF-268 CNS): > 100 µM
TGI (SF-295 CNS): > 100 µM
TGI (MDA-MB-435): > 100 µM
TGI (HCT-15 colon): > 100 µM
TGI (DU-145 prostate): > 100 µM
TGI (A498 renal): > 100 µM
TGI (OVCAR-4 ovarian): > 100 µM
TGI (NCI-H460 lung): > 100 µM
TGI (NCI-H522 lung): > 100 µM
TGI (U251 CNS): > 100 µM
TGI (SK-MEL-28 melanoma): > 100 µM
TGI (NCI-H226 lung): > 100 µM
TGI (SK-OV-3 ovarian): > 100 µM
TGI (ACHN renal): > 100 µM

CC(OC(C)(C)C)C(NC(=O)C(CCCCNC(=O)OC(C)(C)C)NC(=O)C(Cc1c[nH]c2ccccc12)NC(=O)C(N)Cc1ccccc1)C(=O)NC(Cc1ccccc1)C(=O)NC1(C(=O)O)CCCC1 (stereo not given) (H-FWK(Boc)T(tBu)F[Ac5c]-OH; configuration not given here)
TGI (NCI-H23 lung): > 100 µM
TGI (HOP-92 NSCLC): > 100 µM
TGI (UACC-257 melanoma): > 100 µM
TGI (NCI-H226 lung): > 100 µM
